The record followed here is patent US20090007283A1, “Transgenic Rodents Selectively Expressing Human B1 Bradykinin Receptor Protein” (priority 2003, published 2009).

The target of test [1] is T1, human B1 receptor (Homo sapiens, UniProt P46663).
T1 construct: from tissue; host or cells: stomach fundus and ileum of line 13 mice homozygous for the human B1 receptor knock-in (targeting vector pB1R-KI2)
T1 sequence (P46663 1-353): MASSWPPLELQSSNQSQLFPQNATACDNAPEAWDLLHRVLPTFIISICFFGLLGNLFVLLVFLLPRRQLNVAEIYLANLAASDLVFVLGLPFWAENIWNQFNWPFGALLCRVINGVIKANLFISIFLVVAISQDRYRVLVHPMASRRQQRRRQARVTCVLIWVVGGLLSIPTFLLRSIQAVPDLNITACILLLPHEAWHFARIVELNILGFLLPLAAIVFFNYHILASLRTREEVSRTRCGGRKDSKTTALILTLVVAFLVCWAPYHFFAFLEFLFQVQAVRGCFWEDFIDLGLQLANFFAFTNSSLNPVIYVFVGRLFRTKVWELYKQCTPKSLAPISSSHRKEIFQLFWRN
Kind of test: Functional assay: DAK-induced contraction of fundus and ileum tissue from line 13 mice homozygous for the human B1 receptor gene. As to the method: A functional assay was carried out twice on homozygous human b1 mouse fundus and ileum tissue to evaluate its B1 receptor activity in line 13, a mouse line homozygous for replacement of the mouse B1 gene with the human B1 receptor gene. A selective human B1 receptor compound (Compound #1) was tested for antagonistic activity against the receptor from these knock-in mice. Specifically, two homozygous mice were euthanized with CO2. Their stomach and ileum were removed and the fundic portion was divided in half by cutting an incision along the greater curvature. A medial longitudinal strip about 1 mm×0.6 cm was obtained by making cut along the midline incision. Two fundic strips were obtained from each stomach. The ileum was cut about 4 cm from the cecum. Each ileum is divided into two pieces and whole muscle was used. […] Each piece of ileum was tied one end to a glass rod with silk 4-0 and the other end to the Statham—Gould force transducer. One gram tension was applied to each tissue and contraction was recorded by a Hewlett-Packard 7758 recorder. All tissues receive 50 mM KCl at the end of 1 hr equilibrium for maximal response. The tissues are washed every 20 min for one hour. 30 nM of Compound #1 was added to two treated ileum or two treated fundus tissues and incubated for one hour. 0.1 μM M422 and 1 μM thiorphan are added to the bath 30 min before DAK dosing. A cumulative dose-response of DAK (10-^10M to 3×10^−5M) is carried out after pre-incubation.
DAK is diluted in Krebs solution. Full log dilution is made by adding 25 μl in […]. Compound #1 is diluted in DMSO.

The target of test [2] is T2, B1 receptor (Mus musculus, UniProt Q61125).
T2 construct: from tissue; host or cells: stomach fundus of wild type mice
T2 sequence (Q61125 1-334): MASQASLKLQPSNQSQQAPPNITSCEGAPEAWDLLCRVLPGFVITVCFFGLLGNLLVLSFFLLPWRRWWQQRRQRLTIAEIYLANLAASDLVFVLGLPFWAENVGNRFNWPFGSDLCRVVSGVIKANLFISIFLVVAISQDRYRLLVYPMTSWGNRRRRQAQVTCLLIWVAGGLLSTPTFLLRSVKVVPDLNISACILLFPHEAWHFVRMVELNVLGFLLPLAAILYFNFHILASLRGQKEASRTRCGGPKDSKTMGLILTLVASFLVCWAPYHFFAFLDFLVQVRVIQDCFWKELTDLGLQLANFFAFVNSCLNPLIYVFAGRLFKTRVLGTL
Kind of test: DAK response of the stomach fundus in wild type mice. An excerpt: This phenotype is detailed herein via a functional assay showing the effect of a selective antagonist of the human B1 receptor. […] Therefore, the transgenic mice of the present invention, including but not limited to the humanized mice exemplified herein, will be useful to evaluate the efficacy of human selective compounds in both in vitro and in vivo assays. The addition of exogenous agonist, or the natural release of endogenous agonist resulting from a stimulus, may activate the human receptor. The ability of human selective compounds to antagonize the activation of the receptor will permit a determination of the efficacy of the compound in these animal models. To this end, the humanized B1 transgenic models as described herein will be useful to screen any potential modulator of receptor activity (e.g., antagonists or agonists), including but not necessarily limited to peptides, proteins, or non-proteinaceous organic or inorganic molecules. The transgenic animals of the present invention provide for improved models to evaluate the efficacy of human selective compounds in both in non-human animal models, such as rodents humanized for expression of the B1 receptor. […] Even if successful, the properties of compounds selective for humans could not be assessed. […]

The target of test [3] is T3, hb1 (Homo sapiens, UniProt P46663).
T3 sequence (P46663 1-353): T1 sequence (P46663 1-353)
Kind of test: binding data, hb1. Conditions: human B1 receptor; kind of constant not given.

Test [4] has as its target T4, rat b1 (Rattus norvegicus, UniProt P97583).
T4 sequence (P97583 1-337): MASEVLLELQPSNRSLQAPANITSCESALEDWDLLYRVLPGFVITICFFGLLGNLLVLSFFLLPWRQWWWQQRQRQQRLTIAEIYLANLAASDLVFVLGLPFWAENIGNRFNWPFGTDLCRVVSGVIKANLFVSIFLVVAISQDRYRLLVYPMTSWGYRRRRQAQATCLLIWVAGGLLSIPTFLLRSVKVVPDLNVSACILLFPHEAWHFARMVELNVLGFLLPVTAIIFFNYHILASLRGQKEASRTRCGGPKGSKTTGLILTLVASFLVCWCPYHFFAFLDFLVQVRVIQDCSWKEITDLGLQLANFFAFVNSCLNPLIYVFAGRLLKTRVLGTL
Nature of the test: binding data, rat b1. Conditions: rat B1 receptor; kind of constant not given.

Test [5] deals with T5, human B1 bradykinin receptor (human) (UniProt P46663).
T5 sequence (looked up): T1 sequence (P46663 1-353)
Nature of the test: cell-based or functional assay.

For the compound “des-Arg^10 kallidin [des-arg^10-kallidin, reference compound]”, the DAK contractile response entry in test [1] (Line #13 homozygous mice, compared with wild type) is “full DAK contractile responses”.
Turning to `O=C(C[C@@H]1C(=O)NCCN1S(=O)(=O)c1cccc2c1NCCC2)NCCc1ccc(C2=NCCN2)cc1` [Compound #1], the Kb is 0.25 nM in test [1] (homozygous mouse fundus, Experiment #2 combined with Experiment #1 (n = 4)); 0.27 nM in test [1] (homozygous mouse fundus, line 13, Experiment #1, 30 nM antagonist vs DAK); 0.23 nM in test [1] (homozygous mouse fundus, line 13, Experiment #2, 30 nM antagonist vs DAK); 0.09 nM in test [1] (homozygous mouse ileum, Experiment #2 combined with Experiment #1 (n = 4)); 0.11 nM in test [1] (homozygous mouse ileum, line 13, Experiment #1, 30 nM antagonist vs DAK); 0.21 nM in test [1] (homozygous mouse ileum, line 13, Experiment #2, 30 nM antagonist vs DAK). Besides, the “sensitivity of the DAK response to the human B1 selective antagonist” value in test [2] was “insensitive”. Moreover, the Ki amounted to 0.04 nM in test [3] and 591 nM in test [4].
As to “des-Arg^10 kallidin (from UniProt P01042 380-388) (peptide)”, the EC50 of des-arg^10-kallidin, contraction of homozygous mouse ileum, Control (n = 2), Experiment #1 in test [5] is 4 nM.

The term Ki denotes a measure of affinity in units of concentration, obtained from inhibition or displacement. Low values mean tighter binding, high ones weaker binding.
